For series [1], the target named is T1, human Edg 7 receptors (Homo sapiens, UniProt Q9UBY5).
T1 construct: expressed in transfected cells; host or cells: HTC rat hepatoma cells
T1 sequence (Q9UBY5 1-353): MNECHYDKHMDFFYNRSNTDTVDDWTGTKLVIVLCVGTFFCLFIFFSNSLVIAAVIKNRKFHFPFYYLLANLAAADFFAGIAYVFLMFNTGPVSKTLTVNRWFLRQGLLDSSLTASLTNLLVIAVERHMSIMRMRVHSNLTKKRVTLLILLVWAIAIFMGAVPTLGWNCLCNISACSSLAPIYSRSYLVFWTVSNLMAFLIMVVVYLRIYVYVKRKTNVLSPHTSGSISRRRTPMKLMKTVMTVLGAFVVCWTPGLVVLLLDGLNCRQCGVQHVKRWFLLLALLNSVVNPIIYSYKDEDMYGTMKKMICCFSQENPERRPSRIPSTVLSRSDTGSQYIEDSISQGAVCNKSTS
Put plainly: LPA-stimulated calcium mobilization (FLIPR) in HTC cells expressing Edg-7. It is filed as cell-based. As for the experimental part:
The compounds were tested in HTC cells expressing human Edg 7 receptors, as well as in HT1080 human fibrosarcoma cell lines that naturally express Edg 7 receptors. […] The compounds are tested in this recombinant system first, and subsequently tested in cell lines expressing Edg-7 (in addition to other Edg receptors).
LPA receptors such as Edg-7, couple to calcium effector pathways, and result in increases in intracellular calcium following receptor activation (An, 1998, J. Cell. Biochem Supp. 30-31:147-157). This biological response lends itself to a very efficient, high-throughput screen using a Fluorescence Imaging Plate Reader (FLIPR; Molecular Devices, Sunnyvale, Calif.). The FLIPR system is a real-time, cell-based assay system with continuous fluorescence detection using a cooled CCD camera. The FLIPR system was used to developing an Edg-7 receptor screen. Rat hepatoma cells stably expressing Edg-7 receptor were plated on 384-well plates and loaded with a calcium dye loading kit (Molecular Devices, Sunnyvale, Calif.) for 1 hour at room temperature. Cells were then placed on the FLIPR^384 (Molecular Devices, Sunnyvale, Calif.) and excited by an argon laser at 488 nm. The data for the entire 384-well plate was updated every second. An integrated robotic pipettor allowed for simultaneous compound addition into each individual well in the plate.

In series [2] the target is T2, Edg-2 (Homo sapiens, UniProt Q92633).
T2 construct: expressed in transfected cells; host or cells: HTC rat hepatoma cells
Put plainly: LPA-stimulated calcium increases in HTC cells expressing Edg-2. It counts as cell-based. Particulars: concentrations as high as 10 μM.

In series [3] the test system is Edg4. The experiment in a line: LPA-stimulated calcium increases in HTC cells expressing Edg4. Particulars: concentrations as high as 10 μM. It counts as cell-based.
The target of series [4] is T3, Edg-1 (Homo sapiens, UniProt P21453).
T3 construct: expressed in transfected cells; host or cells: HTC rat hepatoma cells
Put plainly: S1P-stimulated calcium increases in HTC cells expressing Edg-1. It counts as cell-based. Particulars: concentrations as high as 10 μM.

The target in series [5] is T4, Edg-3 (Homo sapiens, UniProt Q99500).
T4 construct: expressed in transfected cells; host or cells: HTC rat hepatoma cells
Put plainly: S1P-stimulated calcium increases in HTC cells expressing Edg-3. It counts as cell-based. Particulars: concentrations as high as 10 μM.

For series [6], the target named is T5, Edg-5 (Homo sapiens, UniProt O95136).
T5 construct: expressed in transfected cells; host or cells: HTC rat hepatoma cells
Put plainly: S1P-stimulated calcium increases in HTC cells expressing Edg-5. It is filed as cell-based. Particulars: concentrations as high as 10 μM.

Series [7] concerns the target T6, Edg-8 (Homo sapiens, UniProt Q9H228).
T6 construct: expressed in transfected cells; host or cells: HTC rat hepatoma cells
The experiment in a line: S1P-stimulated calcium increases in HTC cells expressing Edg-8. It counts as cell-based. The settings on record: concentrations as high as 10 μM.

Series [8] relates to targets, including GPCRs and ion channels. The experiment in a line: Pharmacology profiling: radioligand binding assays on non-Edg targets. Particulars: Section 6.10 panel: adrenergic α1, α2, β, angiotensin AT2, calcium channel Type L, dopamine D2L, endothelin ETA, histamine H1, muscarinic, serotonin 5-HT1; significance criteria ≧50%. As for the experimental part:
In order to test the selectivity of compounds, various enzyme assays as well as radioligand binding assays were performed using numerous non-Edg receptor targets as listed below.
A radioligand binding assay was performed using adrenergic α1 according to the method of Greengrass and Bremner 1979, Eur. J. Pharmacol. 55:323-326. A radioligand binding assay was performed using adrenergic α2 according to the method of Boyajian and Leslie, 1987, J. Pharmacol. Exp. Ther. 241:1092-1098. A radioligand binding assay was performed using adrenergic β according to the method of Feve et al., 1994, Proc. Natl. Acad. Sci. USA 91:5677-5681. A radioligand binding assay was performed using angiotensin AT2 according to the method of Whitebread et al., 1991, Biochem. Biophys. Res. Comm. 181:1365-1371. A radioligand binding assay was performed using calcium channel Type L, dihydropyridine according to the method of Ehlert et al., 1982, Life Sci. 30:2191-2202. A radioligand binding assay was performed using dopamine D2L according to the method of Bunzo et al., 1988, Nature 336:783-787. A radioligand binding assay was performed using endothelin ETA according to the method of Mihara et al., 1994, J. Phrmacol. Exp Ther. 268:1122-1127. A radioligand binding assay was performed using histamine H1 Central according to the method of Hill et al., 1978, J. Neurochem. 31:997-1004. […]

The structures appear in SMILES notation.

T2 sequence (Q92633 whole entry): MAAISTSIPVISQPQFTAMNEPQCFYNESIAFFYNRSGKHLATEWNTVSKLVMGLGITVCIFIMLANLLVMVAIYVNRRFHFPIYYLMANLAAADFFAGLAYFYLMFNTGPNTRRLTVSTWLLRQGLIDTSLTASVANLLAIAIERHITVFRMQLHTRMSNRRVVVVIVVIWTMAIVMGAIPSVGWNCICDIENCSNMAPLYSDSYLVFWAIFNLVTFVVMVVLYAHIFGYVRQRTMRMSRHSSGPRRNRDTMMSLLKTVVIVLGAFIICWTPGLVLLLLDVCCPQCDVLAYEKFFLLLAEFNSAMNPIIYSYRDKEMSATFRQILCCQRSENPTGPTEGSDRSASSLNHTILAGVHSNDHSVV
T4 sequence (Q99500 whole entry): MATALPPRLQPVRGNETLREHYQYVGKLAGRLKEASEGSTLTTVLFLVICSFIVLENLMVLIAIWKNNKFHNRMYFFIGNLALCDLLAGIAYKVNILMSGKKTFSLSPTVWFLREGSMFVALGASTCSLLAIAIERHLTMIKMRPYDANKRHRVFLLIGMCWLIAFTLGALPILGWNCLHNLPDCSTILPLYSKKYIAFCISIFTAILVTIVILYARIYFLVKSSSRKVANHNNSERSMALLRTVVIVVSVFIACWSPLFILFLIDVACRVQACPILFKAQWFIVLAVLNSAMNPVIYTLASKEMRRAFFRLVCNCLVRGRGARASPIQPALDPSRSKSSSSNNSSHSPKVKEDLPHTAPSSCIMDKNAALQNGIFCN
T3 sequence (P21453 whole entry): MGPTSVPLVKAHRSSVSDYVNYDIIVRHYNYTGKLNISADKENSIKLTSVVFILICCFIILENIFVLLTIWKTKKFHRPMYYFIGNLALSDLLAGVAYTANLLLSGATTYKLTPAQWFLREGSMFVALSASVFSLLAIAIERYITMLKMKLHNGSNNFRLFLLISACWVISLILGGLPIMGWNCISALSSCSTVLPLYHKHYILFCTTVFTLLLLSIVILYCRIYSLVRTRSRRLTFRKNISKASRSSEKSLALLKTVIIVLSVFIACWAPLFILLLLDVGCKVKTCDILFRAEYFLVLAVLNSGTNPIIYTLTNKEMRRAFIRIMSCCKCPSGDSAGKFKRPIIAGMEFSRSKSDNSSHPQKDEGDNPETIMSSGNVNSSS
T6 sequence (Q9H228 whole entry): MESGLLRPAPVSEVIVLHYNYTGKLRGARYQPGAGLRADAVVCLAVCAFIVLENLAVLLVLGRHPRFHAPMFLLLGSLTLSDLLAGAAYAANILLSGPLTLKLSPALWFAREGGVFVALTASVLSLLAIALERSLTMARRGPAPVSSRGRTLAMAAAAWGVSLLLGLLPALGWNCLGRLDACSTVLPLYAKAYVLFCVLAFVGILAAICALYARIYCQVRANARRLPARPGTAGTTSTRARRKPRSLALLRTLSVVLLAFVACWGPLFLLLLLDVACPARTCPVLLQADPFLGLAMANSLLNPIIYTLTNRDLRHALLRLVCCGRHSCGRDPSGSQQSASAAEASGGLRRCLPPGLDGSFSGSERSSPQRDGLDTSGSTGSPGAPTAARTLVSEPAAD
T5 sequence (O95136 whole entry): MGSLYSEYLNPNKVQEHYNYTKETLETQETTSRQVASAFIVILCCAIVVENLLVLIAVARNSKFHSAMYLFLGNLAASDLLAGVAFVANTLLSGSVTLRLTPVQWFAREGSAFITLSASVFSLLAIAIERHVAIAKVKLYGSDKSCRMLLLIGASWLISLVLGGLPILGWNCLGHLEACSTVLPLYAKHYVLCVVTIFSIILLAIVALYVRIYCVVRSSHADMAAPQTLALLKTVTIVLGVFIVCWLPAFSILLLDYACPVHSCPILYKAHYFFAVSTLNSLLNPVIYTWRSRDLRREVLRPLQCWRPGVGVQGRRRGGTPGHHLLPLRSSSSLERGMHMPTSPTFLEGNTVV

As for `CCOC(=O)c1c(NC(=O)NS(=O)(=O)c2ccccc2Cl)sc2c1CCCC2` [Compound 101], the “inhibition of the Edg-7 receptor” value in series [1] (FIG. 1, HTC cells) is reported as “specifically inhibit”. The “inhibition of Edg-7 stimulated LPA responses” value in series [1] (HTC cells expressing human Edg 7 receptors, as well as HT1080 human fibrosarcoma cell lines) is “demonstrate inhibition”. Moreover, the “inhibition of LPA-stimulated calcium increases” value in [2] and in series [3] was “did not inhibit” in each case. For the same compound, the “inhibition of S1P-stimulated calcium increases” value in [4], in series [5], in [6] and in series [7] was “did not inhibit” each time. The “activity in radioligand binding assays” value in series [8] is recorded as “no significant activity”.

Regarding `Cc1cc(C)c2c(c1)Cc1ccccc1S2(=O)=O` [Compound 133, 2,4-Dimethyl-9H-thioxanthene 10,10-dioxide], the melting point (in general, the temperature of the solid-liquid transition) fell in the range of 103 to 105 °C.

Compound `COc1ccc(-c2nc3ccc(C(=O)O)cc3nc2-c2ccc(OC)cc2)cc1` [Compound 129, 2,3-bis-(4-Methoxyphenyl)quinoxaline-6-carboxylic acid] displayed a melting point of 284 to 285 °C.

The values above are taken from patent US20040167165A1, “Methods of treating conditions associated with an Edg-7 receptor” (priority 2003, published 2004).
